Article PMC8040286 (iScience, 2021)
Read-outs that look alike come from different tables or passages of the source.

What was measured:
[1] = system: T. cruzi epimastigotes (Y strain); assay: microbe, parasite or virus in culture; format: cell-based, Trypanosoma cruzi; conditions: for Selectivity Index (CC50 CHO/IC50 Epi): CC50 CHO / IC50 epimastigotes; for IC50: Trypanosoma cruzi, 72 h, read-out: IC50 epimastigotes
[2] = system: GFP-expressing T. cruzi (Y) trypomastigotes released from infected CHO cells; assay: microbe, parasite or virus in culture; format: cell-based, Trypanosoma cruzi; conditions: for inhibition at 5 µM: read-out: Percentage inhibition of parasite release at 5 μM (low ROS)
[3] = Cytotoxicity/antiproliferative MTT assay in CHO host cells; format: cell-based, hamster; conditions: Chinese hamster, CHO-K1 cells
[4] = system: T. cruzi parasite release from trypomastigote-infected CHO cells; assay: microbe, parasite or virus in culture; format: cell-based; conditions: Trypanosoma cruzi; for IC50: read-out: IC50 inhibition of parasite release, serum-free conditions (high ROS), serum-free host cell culture as used in the screening
casein kinase 1 = conditions: read-out: IC50 casein kinase 1; ref Justiniano et al., 2014; cited from earlier work
[5] = rodents; ref Li et al., 2020; cited from earlier work
CHO-K1 cells = assay: Cytotoxicity/antiproliferative MTT assay in CHO host cells; format: cell-based, hamster; conditions: read-out: CC50 CHO cells; 72-hr incubation; anthraquinones (Table 5)
[6] = CC50 CHO cells, 72-hr incubation, anthraquinones (Table 5)
[7] = read-out: Percentage inhibition of parasite release (serum-free) at 5 μM, 5 μM, serum-free, 6 dpi, CHO host cells
[8] = Cytotoxicity CC50 CHO cells without FBS, 72 hr, without FBS
[9] = Cytotoxicity CC50 CHO cells, 72 hr (Table 3)
[10] = read-out: IC50 inhibition of parasite release, 0.5% hiFBS (low ROS), 0.5% hiFBS, low ROS, GFP-expressing trypomastigotes, 6 dpi

SMILES | IC50 [1] [µM] | inhibition at 5 µM ([2]; Trypanosoma cruzi, CHO) [%] | CC50 at 72 h [3, 6] [µM] | also measured
COc1cc(N)c2c(c1N)C(=O)c1ccccc1C2=O [compound 17, Disperse Red11] | 32.9 ± 13.9 | 46.8 ± 25.6 | > 100 | Selectivity Index (CC50 CHO/IC50 Epi) [1]: >3
Cc1cc2c(cc1O)C(=O)c1ccccc1C2=O [compound 13, 2-Hydroxy-3-methylanthraquinone] | > 50 | 0 | – | –
C=C[C@@H](O)C#CC#C[C@@H](O)/C=C\CCCCCCC [Falcarindiol] | > 50 | – | – | inhibition at 5 µM ([4]; read-out: Percentage inhibition of parasite release (serum-free) at 5 μM): 0%; CC50 at 72 h [3]: > 100 µM
C=C1[C@@H]2[C@H]3OC(=O)C(=C)[C@@H]3CCC(=C)[C@@H]2C[C@@H]1O [Zaluzanin C] | 6.7 ± 0.7 | – | – | inhibition at 5 µM [4, 7]: 71 ± 7.5%; CC50 at 72 h [3, 8]: 19.2 ± 5.2 µM; CC50 at 72 h [3, 9]: 6.6 ± 1.7 µM
O=C1c2ccccc2C(=O)c2c1ccc(O)c2O [compound 4, Alizarin] | > 50 | 0 | – | –
CC(=O)Oc1cccc2c1C(=O)c1c(OC(C)=O)cc(C(=O)O)cc1C2=O [compound 16, Diacerein] | > 50 | 0 | – | –
O=C1c2ccccc2C(=O)c2c(O)c(O)cc(O)c21 [compound 3, Purpurin] | > 50 | 48.3 ± 18.1 | 59.5 ± 10.1 | selectivity index (parasite release) ([2]; basis not stated, discussion): 7
O=C1c2ccccc2C(=O)c2ccccc21 [compound 1, Anthraquinone] | > 50 | 22.2 ± 9.6 | – | CC50 at 72 h [3]: > 100 µM
O=C1c2cccc(O)c2C(=O)c2c(O)cccc21 [compound 8, Dantron] | 5.3 ± 2.3 | 0 | – | –
O=C1c2ccccc2C(=O)c2c1cc(S(=O)(=O)O)c(O)c2O [compound 5, Alizarin Red S] | > 50 | 0 | – | –
O=C1c2cccc(O)c2C(=O)c2cccc(O)c21 [compound 7, Anthrarufin] | > 50 | 0 | – | –
CC(=O)c1c(C)cc2cccc(O)c2c1O [Nepodin] | 28.7 ± 13.3 | – | – | inhibition at 5 µM [4, 7]: ~30%; CC50 at 72 h [3, 9]: > 100 µM
O=C(O)c1cc(O)c2c(c1)C(=O)c1cccc(O)c1C2=O [compound 15, Rhein] | > 50 | 0 | – | –
Cc1c(O)ccc2c1C(=O)c1ccccc1C2=O [compound 14, 2-Hydroxy-1-methylanthraquinone] | > 50 | 20.9 ± 9.7 | 88.9 ± 8.9 | –
COc1c(O)cc2c(c1O)C(=O)c1c(cc(C)c(O)c1OC)C2=O [compound 18, Aurantio-obtusin] | > 50 | 0 | – | –
C=C1CC[C@H]2C(=C)CC[C@H]3C(=C)C(=O)O[C@@H]3[C@@H]12 [Dehydrocostus lactone] | 1.4 ± 0.4 | – | – | inhibition at 5 µM [4, 7]: 86.2 ± 4.1%; CC50 at 72 h [3, 8]: 12.2 ± 0.5 µM; CC50 at 72 h [3, 9]: 5.8 ± 1.9 µM
Cc1cc(O)c2c(c1)C(=O)c1cc(O)cc(O)c1C2=O [compound 2, Emodin] | 14.1 ± 8.2 | 24.8 ± 12.9 | > 100 | Selectivity Index (CC50 CHO/IC50 Epi) [1]: >7; IC50 (casein kinase 1): 130 µM; IC50 [4]: 0.72 µM; inhibition at 5 µM [4, 7]: 61.5 ± 18.2%; oral bioavailability [5]: 5–10%; IC50 ([2]; Trypanosoma cruzi, CHO, read-out: IC50 inhibition of parasite release, 0.5% hiFBS (low ROS), 0.5% hiFBS, low ROS, GFP-expressing trypomastigotes, 6 dpi): 9.52 µM; IC50 [2, 10]: 9.5 µM; CC50 at 72 h [3, 9]: > 100 µM
C=C1C(=O)O[C@@H]2/C=C(\C)CC/C=C(\C)CC[C@@H]12 [Costunolide, (6R, 7S)-costunolide] | 7.4 ± 5.9 | – | – | inhibition at 5 µM [4, 7]: 0%; CC50 at 72 h [3, 8]: 35.4 ± 13.8 µM; CC50 at 72 h [3, 9]: 10.9 ± 3.7 µM
Cc1cc(O)c2c(c1)C(=O)c1cccc(O)c1C2=O [compound 10, Chrysophanol] | 6.6 ± 3.5 | 22.6 ± 17.2 | 35.7 ± 7.4 | Selectivity Index (CC50 CHO/IC50 Epi) [1]: 5.4
O=C1c2cccc(O)c2C(=O)c2c(O)cc(CO)cc21 [compound 11, Aloe-emodin] | 14.5 ± 5.6 | 44 ± 17.6 | 42 ± 15.5 | Selectivity Index (CC50 CHO/IC50 Epi) [1]: 2.9
COc1cc(O)c2c(c1)C(=O)c1cc(C)cc(O)c1C2=O [compound 12, Physcion] | 6.4 ± 3.7 | 0 | – | –
O=C1c2ccc(O)cc2C(=O)c2ccc(O)cc21 [compound 9, Anthraflavic acid] | > 50 | 0 | – | –
O=C1c2ccccc2C(=O)c2c(O)ccc(O)c21 [compound 6, Quinizarin] | > 50 | 68.5 ± 19.2 | 38 ± 16 | Selectivity Index (CC50 CHO/IC50 Epi) [1]: <1; CC50 (CHO-K1 cells): 38.1 ± 16 µM
O=C(Cn1ccnc1[N+](=O)[O-])NCc1ccccc1 [BZN, benznidazole, reference compound] | 13.8 ± 2.9 | 84.9 ± 4.8 | > 100 | Selectivity Index (CC50 CHO/IC50 Epi) [1]: >7; IC50 [4]: 5 to 9 µM; IC50 [2, 10]: 1.4 µM; CC50 at 72 h [3, 9]: > 100 µM
